Data on seven compounds can be found in PubChem BioAssay (NCI).

SMILES strings stand for the structures. Several values for one entry are separate records, joined by “and”; a condition that tells them apart may be missing. Equal values may be shown once.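 1) Cells in 96-well plates. 2) Compound, 48 h, 5 concentrations. 3) Linear interpolation between surrounding doses. 4) Unreached endpoint = highest concentration. At the GI50, growth is halved. The concentration for full growth arrest is given as TGI.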

Common to all, as to test: NCI-60 cell line screen, 48 h
Test [1] deals with T-47D breast.
Test [2] concerns SN12C renal.
Test [3] has as its system SK-MEL-2 melanoma.
For test [4], the system named is SF-539 CNS.
For test [5], the system named is OVCAR-3 ovarian.
Test [6] relates to MCF7 breast.
The test system of test [7] is KM12 colon.
The subject of test [8] is HL-60(TB) leukemia.
Test [9] deals with SK-MEL-28 melanoma.
For test [10], the system named is HOP-62 NSCLC.

As for `COc1ccc2c(c1)/C(=C/c1c(-c3ccc(C)cc3)nc3sc(C)cn13)C(=O)N2`, the GI50 is 5.5 µM in test [1]; 13.9 µM in test [2]; 14.6 µM in test [3]; 20.3 µM in test [4]; 15.5 µM in test [5]; 12.1 µM in test [6]. Also, the GI50 in [7] was 23.1 µM; in [8], 4.85 µM; in [9], 23.4 µM; in [10], 19.7 µM. For the same compound, the TGI in [1] is more than 100 µM; in test [2], 31.9 µM; in test [3], 47.7 µM; in test [4], more than 100 µM; in test [5] it was more than 100 µM; in test [6] it was more than 100 µM. In addition, the TGI is more than 100 µM in test [7], 30.8 µM in [8], more than 100 µM in [9] and more than 100 µM in test [10].
Take `Nc1c(C(=O)Nc2cccc3ccccc23)sc2nc3c(cc12)CCCCC3`: the GI50 in [1] is 5.94 µM; in test [2] it was 2.26 µM; in test [3], more than 50 µM; in test [4], 0.458 µM; in test [5] it was 0.542 µM; in test [6] it was 0.168 µM. Further, the GI50 in [7] was 0.76 µM; in test [8] it was 0.202 µM; in test [9], 4.32 µM; in test [10], 2.63 µM. In addition, the TGI in test [1], in [2], in test [3], in test [4], in [5] and in [6] was more than 50 µM in each case. Further, the TGI in test [7] was more than 50 µM; in test [8], 2.87 µM; in test [9], more than 50 µM; in test [10] it was more than 50 µM.
Consider `C[C@@H](Oc1cc(-c2cnn(C3CC4(CCNCC4)C3)c2)cnc1N)c1c(F)ccc(Cl)c1Cl`, for which the GI50 was 1.58 µM in test [1]; 1.49 µM in test [2]; 1.93 µM in test [3]; 1.51 µM in test [4]; 1.83 µM in test [5]; 0.383 µM in test [6]. Besides, the GI50 in [7] is 0.0399 µM; in test [8], 1.28 µM; in test [9] it was 1.55 µM; in test [10], 1.25 µM. The TGI in test [1] worked out at 3.24 µM; in test [2], 7.1 µM; in test [3], 3.74 µM; in test [4] it was 2.96 µM; in [5] it was 5.19 µM; in test [6], 1.88 µM. In addition, the TGI in test [7] was 1.39 µM; in test [8], 3.36 µM; in test [9], 3.2 µM; in test [10], 5.9 µM.
For the compound `O=c1[nH]cnc2c1nnn2[C@@H]1O[C@H](CO)[C@@H](O)[C@H]1O`, the GI50 in [1] was 4.53 µM; in test [2] it was 6.4 µM; in [3], 5.4 µM; in test [4] it was 7.66 µM; in [5], 3.43 µM; in test [6], 3.29 µM. Further, the GI50 was 7.85 µM in test [7], 1.56 µM in [8], 31.5 µM in [9] and 9.22 µM in test [10]. The TGI is more than 100 µM in test [1]; more than 100 µM in test [2]; 70 µM in [3]; more than 100 µM in test [4]; 33.8 µM in test [5]; more than 100 µM in test [6]. Besides, the TGI in test [7] was more than 100 µM; in test [8] it was 39.5 µM; in [9] it was more than 100 µM; in test [10] it was more than 100 µM.
With `CNC(=O)c1ccc(Nc2nc(OC3CCCC3)c3c(-c4ccc5nc(C)oc5c4)c[nH]c3n2)c(OC)c1`, the GI50 is 0.907 µM in test [1]; 1.32 µM in test [2]; more than 51.3 µM in test [3]; 0.332 µM in test [4]; 0.427 µM in test [5]; 0.252 µM in test [6]. Further, the GI50 in [7] was 9.47 µM; in test [8], 29.2 µM; in test [9] it was 41.4 µM; in test [10], more than 100 µM. For the same compound, the TGI in test [1] was more than 100 µM; in [2] it was more than 100 µM; in test [3], more than 100 µM; in [4], more than 100 µM; in test [5] it was more than 44.6 µM; in [6], more than 100 µM. In addition, the TGI in test [7], in test [8], in [9] and in test [10] was more than 100 µM each time.
For the compound `O=C1CN2CCC1C/C2=C\c1ccnc2c(Cl)cccc12` (stereo not given), the GI50 is 18.8 µM in test [1]; more than 100 µM in [2]; more than 100 µM in [3]; more than 100 µM in test [4]; more than 100 µM in test [5]; 4.16 µM in test [6]. Besides, the GI50 was 56.8 µM in test [7], 67.4 µM in [8], more than 100 µM in [9] and more than 100 µM in test [10]. Also, the TGI in test [1], in test [2], in test [3], in [4], in test [5] and in test [6] was more than 100 µM in each case. In addition, the TGI in test [7], in [8], in [9] and in test [10] was more than 100 µM each time.
As to `Cc1cc2c(cc1C)[n+](=O)c(C(=O)c1cccs1)c(C(F)(F)F)n2[O-]`, the GI50 in test [1] is 7.74 µM and 4.47 µM; in test [2] it was 1.31 µM; in test [3], 15.8 µM and 8.02 µM; in test [4], 1.39 µM; in test [5], 1.44 µM and 0.744 µM; in test [6], 2.31 µM. Also, the GI50 in [7] is 5.38 µM and 10.3 µM; in [8] it was 1.96 µM and 2.54 µM; in [9], 8.83 µM and 12.3 µM; in test [10], 14.6 µM and 2.68 µM. Besides, the TGI in [1] is 50 µM and 29.8 µM; in [2], 6.59 µM; in [3], 50 µM and 26.3 µM; in test [4], 7.69 µM; in test [5] it was 9.78 µM and 4.34 µM; in [6], 12.6 µM. In addition, the TGI is 12.6 µM and 51.9 µM in test [7]; 11 µM and 28.8 µM in test [8]; 28.9 µM and 46.2 µM in test [9]; 50 µM in test [10].
